The test system of series [1] is human platelet rich plasma. The series can be described thus: Inhibition of human platelet aggregation induced by ADP (PRP). The class given is cell-based. How it is done: The final concentration is 0.38% sodium citrate.
The optical density (OD620) is then measured at 620 nm. […] This is to verify the stability of the platelets (absence of spontaneous platelet aggregation). […] Between two measurements, the plate is shaking for 40 seconds at 1,000 rpm. Each test compound is investigated in at least 2 experiments using PRP from different volunteers.
The mean OD at each compound concentration (including vehicle) is calculated at t=0 min and t=10 min. The percentage inhibition at each concentration is calculated using the formula: […]

In series [2] the test system is washed human platelets. Briefly: Inhibition of human platelet aggregation induced by TRAP (washed platelets). It is filed as cell-based. How it is done: This aggregation can be determined by measuring the optical density of the WPL. The in vitro test described here is used to analyze the activity of a test compound to inhibit TRAP-induced aggregation of human platelets.
Between two measurements, the plate is shaking for 40 seconds at 1,000 rpm.

The test system of series [3] is guinea pig platelet aggregation. Briefly: In vitro neutralisation of inhibition of guinea pig platelet aggregation by avidin. The class given is cell-based. Particulars: avidin added to ADP-induced guinea pig platelet aggregation assay. As for the experimental part: 2.1 In Vitro Neutralization of the Antithrombotic Activity A. In Vitro Neutralisation of Inhibition of Platelet Aggregation (Pre-Incubation of Compound with Avidin)
As performed in above described protocol for ADP-induced platelet aggregation. […] Before inducing the guinea pig platelet aggregation by adding ADP, compound and avidin (from egg white, Sigma) in different concentrations were pre-incubated for 2 minutes at room temperature (FIGS. 1 and 2).
B. In Vitro Neutralisation of Inhibition of Platelet Aggregation
(After Delayed Addition of Avidin)
(§1) As performed in above described protocol for ADP-induced platelet aggregation. […] After 7 minutes the detection of platelet aggregation was interrupted and avidin (from egg white, Sigma) in different concentrations was added at t=9 min. Within 1 minute the detection of the platelet aggregation was resumed (FIGS. 3 and 4).

The subject of series [4] is collagen induced platelet aggregation. The series can be described thus: In vivo neutralization: collagen induced platelet aggregation (thrombocytopenia) model. The conditions noted are these: guinea pig; for neutralization of the platelet inhibitory activity by avidin: avidin 10 mg/kg just prior to collagen infusion. How it is done: 4. In Vivo Neutralization of the Antithrombotic Activity
An intravascular infusion of a collagen suspension induces platelet aggregation and causes transient thrombocytopenia in rats. This test is used to evaluate the influence of a test compound on the severity of thrombocytopenia induced by collagen in rats.
In the first experiment male guinea pigs were s.c. treated with compound 10 at a dose of 75 nmol/kg or vehicle at 4 hours before collagen infusion. In a second experiment compounds 12 and 17 were s.c. administered at a dose of 100 nmol/kg at the same time-point. Male guinea pigs were anaesthetized by i.m. administration of Ketamine+Sedamun (90+10 mg/kg, respectively). After 15 minutes one of the common carotid arteries was dissected free and cannulated with a PE 50 cannula (Clay Adams). Two blood samples of 0.5 mL were collected in plastic vials containing 25 μL 0.20 M Na2EDTA solution. The cannula was then connected to a syringe containing 0.25 mg/mL collagen suspension (Hormon Chemie, Munich, West Germany, diluted with isotonic buffer of pH 2.8). This suspension was administered via an infusion of 225 μL during 30 seconds. Then the syringe was disconnected and 2 blood samples of 0.5 mL were taken at 85 and 95 seconds after the start of the collagen infusion. Then the animals were killed with euthasate after which the number of platelets per sample were counted with a Sysmex blood cell counter model KX-21. In case avidin was used, 10 mg/kg of avidin was i.v. administered at t=4 h after s.c. administration of compound 10, 12 or 17 after which collagen was infused within 5 minutes.
After counting the number of platelets in the collected blood samples the decreased number of platelets is calculated by dividing the mean platelet number of the blood samples obtained at t=85 and 95 seconds by the mean value of the blood samples obtained at t=0. The test was carried out with n=4.

In series [5] the test system is human platelet aggregation. The series can be described thus: In vitro neutralisation of inhibition of human platelet aggregation by avidin. The class given is cell-based. The conditions noted are these: avidin added 9 minutes after ADP-induced aggregation, human platelets. As for the experimental part: as §1
In FIG. 5, the effect of avidin on the inhibition of human platelet aggregation by compound 17 is shown (addition of avidin 9 minutes after ADP-induced platelet aggregation).

The nature of series [6]: Bleeding in guinea pigs and its stop by avidin. It is filed as in vivo, guinea pig. The conditions noted are these: guinea pigs.
Setting [7] is: 75 nmol/kg s.c., + avidin 10 mg/kg i.v. at t = 4 h.
The mark [8] stands for this setting: 75 nmol/kg s.c., without avidin.
Setting [9] is: 100 nmol/kg s.c., + avidin 10 mg/kg i.v. at t = 4 h.
The mark [10] stands for this setting: 100 nmol/kg s.c., without avidin.

Counter-ions that a name gives are not always drawn.

With `CO[C@H]1O[C@H](COS(=O)(=O)O)[C@@H](O[C@@H]2O[C@@H](C(=O)O)[C@@H](O[C@H]3O[C@H](COS(=O)(=O)O)[C@@H](O[C@@H]4O[C@H](C(=O)O)[C@@H](O[C@H]5O[C@H](COS(=O)(=O)O)[C@@H](OCCOCCOCCOCCNC(=O)[C@H](CCCCNC(=O)CCCC[C@@H]6SC[C@@H]7NC(=O)N[C@@H]76)NC(=O)COCCOCCOCCOCCNC(=O)c6cccc(S(=O)(=O)N[C@@H](Cc7ccc(OCCCCC8CCNCC8)cc7)C(=O)O)c6)[C@H](OC)[C@H]5OC)[C@H](OC)[C@H]4OC)[C@H](OS(=O)(=O)O)[C@H]3OS(=O)(=O)O)[C@H](OC)[C@H]2OC)[C@H](OS(=O)(=O)O)[C@H]1OS(=O)(=O)O` [Compound 10, sodium salt], the IC50 in series [1] worked out at 0.074 µM; in series [2], 0.072 µM. The “effect of avidin on inhibition of guinea pig platelet aggregation (neutralisation of anti-GPIIbIIIa activity)” value in series [3] was “immediate restoration of platelet aggregation”. The “No. of platelets t = 0” value in series [4] (75 nmol/kg s.c., 4 h before collagen, without avidin) amounted to 386 ± 31; in series [4] (setting [7]) it was 384 ± 20. Besides, the “% inhibition” value in series [4] (75 nmol/kg s.c., 4 hours after administration, without avidin, sodium salt) came out at 76 ± 4%; in series [4] (setting [7]) it was 2 ± 13%. The “% remaining platelets” value is on record as 40.4 ± 7.8% in series [4] (setting [7]) and 85.3 ± 2.5% in series [4] (setting [8]). Also, the figures for the “No. of platelets t = 90 sec” value in series [4] (setting [7]) and in series [4] (setting [8]) were 152 ± 26 and 328 ± 18, respectively. The “neutralization of the platelet inhibitory activity by avidin” value in series [4] was “immediate and quantitative neutralization”.

Take `CO[C@H]1O[C@H](COS(=O)(=O)O)[C@@H](O[C@@H]2O[C@@H](C(=O)O)[C@@H](O[C@H]3O[C@H](COS(=O)(=O)O)[C@@H](O[C@@H]4O[C@H](C(=O)O)[C@@H](O[C@H]5O[C@H](COS(=O)(=O)O)[C@@H](OCCOCCOCCOCCNC(=O)COCCOCCOCCOCCNC(=O)c6cccc(S(=O)(=O)N[C@@H](Cc7ccc(OCCCCC8CCNCC8)cc7)C(=O)O)c6)[C@H](OC)[C@H]5OC)[C@H](OC)[C@H]4OC)[C@H](OS(=O)(=O)O)[C@H]3OS(=O)(=O)O)[C@H](OC)[C@H]2OC)[C@H](OS(=O)(=O)O)[C@H]1OS(=O)(=O)O` [Compound 12, sodium salt, reference compound]: the IC50 in series [1] was determined as 0.092 µM; in series [2], 0.065 µM. Moreover, in series [3], the “effect of avidin on inhibition of guinea pig platelet aggregation (neutralisation of anti-GPIIbIIIa activity)” value was “cannot be restored”. Besides, the “% inhibition” value in series [4] (100 nmol/kg s.c., 4 hours after administration, without avidin, sodium salt) is reported as 70 ± 4%; in series [4] (setting [9]), 74 ± 3%. The “% remaining platelets” value in series [4] (setting [9]) came out at 86.5 ± 1.7%; in series [4] (setting [10]), 84.5 ± 2.2%. Also, the “No. of platelets t = 0” value in series [4] (setting [9]) is 379 ± 6; in series [4] (setting [10]) it was 426 ± 6. In addition, the figures for the “No. of platelets t = 90 sec” value in series [4] (setting [9]) and in series [4] (setting [10]) were 329 ± 11 and 360 ± 7, respectively. The “neutralization of the platelet inhibitory activity by avidin” value in series [4] is on record as “not”.

For the compound `CO[C@H]1O[C@H](COS(=O)(=O)O)[C@@H](O[C@@H]2O[C@@H](C(=O)O)[C@@H](O[C@H]3O[C@H](COS(=O)(=O)O)[C@@H](O[C@@H]4O[C@H](C(=O)O)[C@@H](O[C@H]5O[C@H](COS(=O)(=O)O)[C@@H](OCCOCCOCCOCCNC(=O)[C@H](CCCCNC(=O)C[C@H](NC(=O)CCCC[C@@H]6SC[C@@H]7NC(=O)N[C@@H]76)C(=O)O)NC(=O)COCCOCCOCCOCCNC(=O)c6cccc(S(=O)(=O)N[C@@H](Cc7ccc(OCCCCC8CCNCC8)cc7)C(=O)O)c6)[C@H](OC)[C@H]5OC)[C@H](OC)[C@H]4OC)[C@H](OS(=O)(=O)O)[C@H]3OS(=O)(=O)O)[C@H](OC)[C@H]2OC)[C@H](OS(=O)(=O)O)[C@H]1OS(=O)(=O)O` [Compound 17, sodium salt], in series [1], the IC50 was determined as 0.049 µM. In series [2], half-maximal inhibition (IC50) was put at 0.074 µM. For the same compound, the “effect of avidin on inhibition of human platelet aggregation” value in series [5] is listed as “full restoration of human platelet aggregation”. Further, in series [4] (setting [9]), the “% inhibition” value was −5 ± 15%, the “% remaining platelets” value amounted to 46.5 ± 7.8%, the “No. of platelets t = 0” value came out at 367 ± 16 and the “No. of platelets t = 90 sec” value turned out to be 181 ± 12. Further, in series [4] (setting [10]), the “% remaining platelets” value came out at 82.5 ± 2.0%, the “No. of platelets t = 0” value amounted to 424 ± 11 and the “No. of platelets t = 90 sec” value came out at 348 ± 7. Moreover, the “neutralization of the platelet inhibitory activity by avidin” value in series [4] is “immediate and quantitative neutralization”. Further, in series [6], the “bleeding induced after administration” value is listed as “dose-dependent bleeding”. Moreover, in series [6] (avidin i.v. 10 mg/kg), the “effect of avidin on induced bleeding” value is given as “stopped immediately”.

(Values after patent US8183228B2, “Anticoagulant antithrombotic dual inhibitors comprising a biotin label” (MSD OSS B.V. Netherlands, priority 2005, dated 2012).)
